These results are taken from patent US20200009085A1, “Methods For Treating Ovarian Cancer” (RADIUS HEALTH, INC., priority 2016, published 2020).

Series [1] deals with OV-10-0050 ovarian cancer tumor. The series is described as follows: In vivo xenograft PDX model (OV-10-0050 ovarian patient derived xenograft). On the procedure: RAD1901 used in the examples below was (6R)-6-(2-(N-(4-(2-(ethylamino)ethyl)benzyl)-N-ethylamino)-4-methoxyphenyl)-5,6,7,8-tetrahydronaphthalen-2-ol dihydrochloride, manufactured by IRIX Pharmaceuticals, Inc. (Florence, S.C.). RAD1901 was stored as a dry powder, formulated for use as a homogenous suspension in 0.5% (w/v) methylcellulose in deionized water, and for animal models was administered p.o.
All mice were housed in pathogen-free housing in individually ventilated cages with sterilized and dust-free bedding cobs, access to sterilized food and water ad libitum, under a light dark cycle (12-14 hour circadian cycle of artificial light) and controlled room temperature and humidity.
The PDX shown in FIG. 1 was the OV-10-0050 ovarian cancer tumor, derived from an ovarian adenocarcinoma from a person. The tumor was grade 3 and positive for cytokeratin indicating an ovarian epithelial type. The tumor also stained positive for ER and an ER target gene (progesterone receptor). The OV-10-0050 PDX model was established from viable human tumor tissue that had been serially passaged in animals (female Balb/c nude mice) a limited number of times to maintain tumor heterogeneity. […]
Tumor sizes were measured twice per week in two dimensions using a caliper, and the volume was expressed in mm^3 using the formula: V=0.5 a×b^2 where a and b were the long and short diameters of the tumor, respectively. […]
TGI was calculated for each group using the formula: TGI (%)=[1−(Ti−T0)/(Vi−V0)]×100; Ti is the average tumor volume of a treatment group on a given day, T0 is the average tumor volume of the treatment group on the day of grouping, Vi is the average tumor volume of the vehicle control group on a given day with Ti, and V0 is the average tumor volume of the vehicle group on the day of grouping. […]
A one-way ANOVA was performed to compare tumor volume among RAD1901-treted groups compared to the vehicle-treated group on day 32 of treatment. All data were analyzed using Graphpad Prism. p<0.05 was considered to be statistically significant.
For orientation: A xenograft is tissue or cells of one species grown in another, often human tumour cells in immunodeficient mice.

For series [2], the system named is breast cancer xenograft models. The following applies: regardless of ESR1 mutation status and prior endocrine therapy; cited from earlier work.
For the next series, the target named is T1, ERα (Homo sapiens, UniProt P03372).
T1 sequence (P03372 1-595): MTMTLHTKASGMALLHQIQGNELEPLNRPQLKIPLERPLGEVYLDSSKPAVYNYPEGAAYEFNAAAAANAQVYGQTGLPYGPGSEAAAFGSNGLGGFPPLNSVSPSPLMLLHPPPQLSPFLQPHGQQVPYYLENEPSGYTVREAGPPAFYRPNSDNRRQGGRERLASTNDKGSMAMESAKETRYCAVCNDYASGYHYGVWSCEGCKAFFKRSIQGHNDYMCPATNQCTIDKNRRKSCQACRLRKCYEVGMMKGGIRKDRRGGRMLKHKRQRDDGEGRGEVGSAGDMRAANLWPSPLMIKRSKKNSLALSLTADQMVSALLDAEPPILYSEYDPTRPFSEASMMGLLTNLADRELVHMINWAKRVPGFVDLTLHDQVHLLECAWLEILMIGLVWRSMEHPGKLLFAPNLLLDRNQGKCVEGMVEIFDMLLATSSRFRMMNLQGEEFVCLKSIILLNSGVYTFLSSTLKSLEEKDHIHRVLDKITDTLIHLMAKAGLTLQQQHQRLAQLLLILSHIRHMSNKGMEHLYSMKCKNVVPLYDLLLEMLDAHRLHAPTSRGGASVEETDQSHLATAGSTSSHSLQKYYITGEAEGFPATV
Conditions: ERα versus estrogen receptor beta (ERβ); cited from earlier work.

“Also recorded” adds a separate entry of the source. Structures can show the parent of a compound that is named as a salt.

Consider `CCNCCc1ccc(CN(CC)c2cc(OC)ccc2[C@@H]2CCc3cc(O)ccc3C2)cc1` [RAD1901, (6R)-6-(2-(N-(4-(2-(ethylamino)ethyl)benzyl)-N-ethylamino)-4-methoxyphenyl)-5,6,7,8-tetrahydronaphthalen-2-ol dihydrochloride], for which the “tolerability (reason the group was taken down)” value in series [1] (60 mg/kg p.o. q.d., Day 32, tumor-bearing Balb/c nude mice) was “weakness and heavy body weight loss”. For the same molecule, in series [1] (OV-10-0050 PDX, 30 mg/kg and 60 mg/kg p.o. daily, individual tumor sizes on Day 32, FIG. 2, dihydrochloride), the tumor regression entry was “drive tumor regression; also recorded: tumor regressions in some animals”. For the same molecule, the “tumor growth inhibition (TGI)” value in series [1] (OV-10-0050 PDX, RAD1901 30 or 60 mg/kg p.o. q.d., day 32, approximately equal activity at both dose groups, FIG. 1) is “about 80%”. Moreover, the “tumor growth inhibition and/or regression” value in series [2] was “inhibit tumor growth and/or drive tumor regression”. Moreover, at ERα, the “binding preference ERα versus ERβ” value was “preferentially bind ERα”.
